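Step 1: Grow cells in 96-well plates. Step 2: Expose to compound for 48 hours at 5 concentrations. Step 3: Interpolate endpoints linearly; if unreached, use highest concentration. The concentration for 50% growth inhibition is given as GI50.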 Active and inactive are the calls of the source. Rule as the data show it: active = GI50 up to about 1.1 µM and inactive = higher.
Legend:
Assay in all cases: NCI anticancer screen, dose series, 48 h
NCI-H460 = test system: NCI-H460
COLO 205 = test system: COLO 205
A498 = test system: A498
K562 = test system: K562
SK-MEL-28 = test system: SK-MEL-28
MDA-MB-435 = test system: MDA-MB-435
KM12 = test system: KM12
SN12C = test system: SN12C
BT-549 = test system: BT-549
UACC-62 = test system: UACC-62
PC-3 = test system: PC-3
OVCAR-3 = test system: OVCAR-3
NCI/ADR-RES = test system: NCI/ADR-RES
RPMI-8226 = test system: RPMI-8226
RXF 393 = test system: RXF 393
CAKI-1 = test system: CAKI-1
EKVX = test system: EKVX
NCI-H226 = test system: NCI-H226
SNB-19 = test system: SNB-19
786-0 = test system: 786-0
M14 = test system: M14
MCF7 = test system: MCF7
ACHN = test system: ACHN
SF-295 = test system: SF-295
IGROV-1 = test system: IGROV-1
MDA-MB-231 = test system: MDA-MB-231
MOLT-4 = test system: MOLT-4
HCT-116 = test system: HCT-116
NCI-H23 = test system: NCI-H23
U-251 = test system: U-251
HL-60 = test system: HL-60
HCC 2998 = test system: HCC 2998
CCRF-CEM = test system: CCRF-CEM
SNB-75 = test system: SNB-75
SW-620 = test system: SW-620
SK-MEL-2 = test system: SK-MEL-2
UO-31 = test system: UO-31
SR = test system: SR
OVCAR-4 = test system: OVCAR-4
DU-145 = test system: DU-145
OVCAR-5 = test system: OVCAR-5
TK-10 = test system: TK-10
Hs-578T = test system: Hs-578T
SF-268 = test system: SF-268
HOP-92 = test system: HOP-92
NCI-H522 = test system: NCI-H522
HOP-62 = test system: HOP-62
SF-539 = test system: SF-539
HCT-15 = test system: HCT-15
Malme-3M = test system: Malme-3M
OVCAR-8 = test system: OVCAR-8
LOX IMVI = test system: LOX IMVI
UACC-257 = test system: UACC-257
T47D = test system: T47D
SK-OV-3 = test system: SK-OV-3
HT-29 = test system: HT-29
A549 = test system: A549
SK-MEL-5 = test system: SK-MEL-5
MDA-N = test system: MDA-N

Compound: O=C(O)CCN(CCC(=O)O)c1ccc(/C=C2\SC(=S)NC2=O)cc1
- GI50 (NCI-H460): > 100 µM (inactive)
- GI50 (COLO 205): > 100 µM (inactive)
- GI50 (A498): > 100 µM (inactive)
- GI50 (K562): > 100 µM (inactive)
- GI50 (SK-MEL-28): > 100 µM (inactive)
- GI50 (MDA-MB-435): > 100 µM (inactive)
- GI50 (KM12): > 100 µM (inactive)
- GI50 (SN12C): > 100 µM (inactive)
- GI50 (BT-549): > 100 µM (inactive)
- GI50 (UACC-62): > 100 µM (inactive)
- GI50 (PC-3): > 100 µM (inactive)
- GI50 (OVCAR-3): > 100 µM (inactive)
- GI50 (NCI/ADR-RES): > 100 µM (inactive)
- GI50 (RPMI-8226): > 100 µM (inactive)
- GI50 (RXF 393): > 100 µM (inactive)
- GI50 (CAKI-1): > 100 µM (inactive)
- GI50 (EKVX): > 100 µM (inactive)
- GI50 (NCI-H226): > 100 µM (inactive)
- GI50 (SNB-19): > 100 µM (inactive)
- GI50 (786-0): > 100 µM (inactive)
- GI50 (M14): > 100 µM (inactive)
- GI50 (MCF7): > 100 µM (inactive)
- GI50 (ACHN): > 100 µM (inactive)
- GI50 (SF-295): > 100 µM (inactive)
- GI50 (IGROV-1): > 100 µM (inactive)
- GI50 (MDA-MB-231): > 100 µM (inactive)
- GI50 (MOLT-4): > 100 µM (inactive)
- GI50 (HCT-116): > 100 µM (inactive)
- GI50 (NCI-H23): > 100 µM (inactive)
- GI50 (U-251): > 100 µM (inactive)
- GI50 (HL-60): > 100 µM (inactive)
- GI50 (HCC 2998): > 100 µM (inactive)
- GI50 (CCRF-CEM): > 100 µM (inactive)
- GI50 (SNB-75): > 100 µM (inactive)
- GI50 (SW-620): > 100 µM (inactive)
- GI50 (SK-MEL-2): > 100 µM (inactive)
- GI50 (UO-31): > 100 µM (inactive)
- GI50 (SR): > 100 µM (inactive)
- GI50 (OVCAR-4): > 100 µM (inactive)
- GI50 (DU-145): > 100 µM (inactive)
- GI50 (OVCAR-5): > 100 µM (inactive)
- GI50 (TK-10): > 100 µM (inactive)
- GI50 (Hs-578T): > 100 µM (inactive)
- GI50 (SF-268): > 100 µM (inactive)
- GI50 (HOP-92): > 100 µM (inactive)
- GI50 (NCI-H522): 91.6 µM (inactive)
- GI50 (HOP-62): > 100 µM (inactive)
- GI50 (SF-539): > 100 µM (inactive)
- GI50 (HCT-15): > 100 µM
- GI50 (Malme-3M): 1.48 µM (inactive)
- GI50 (OVCAR-8): > 100 µM (inactive)
- GI50 (LOX IMVI): > 100 µM (inactive)
- GI50 (UACC-257): > 100 µM (inactive)
- GI50 (T47D): > 100 µM (inactive)
- GI50 (SK-OV-3): > 100 µM (inactive)
- GI50 (HT-29): > 100 µM (inactive)
- GI50 (A549): > 100 µM (inactive)
- GI50 (SK-MEL-5): > 100 µM (inactive)

Compound: CN1CCN(C(=S)N(C(=O)c2cccs2)c2ccccc2)CC1
- GI50 (NCI-H460): > 100 µM (inactive)
- GI50 (COLO 205): > 100 µM (inactive)
- GI50 (K562): > 100 µM (inactive)
- GI50 (SK-MEL-28): > 100 µM (inactive)
- GI50 (MDA-MB-435): > 100 µM (inactive)
- GI50 (KM12): > 100 µM (inactive)
- GI50 (SN12C): > 100 µM (inactive)
- GI50 (BT-549): > 100 µM (inactive)
- GI50 (UACC-62): > 100 µM (inactive)
- GI50 (OVCAR-3): > 100 µM (inactive)
- GI50 (RPMI-8226): > 100 µM (inactive)
- GI50 (RXF 393): > 100 µM (inactive)
- GI50 (NCI-H226): > 100 µM (inactive)
- GI50 (SNB-19): > 100 µM (inactive)
- GI50 (786-0): > 100 µM (inactive)
- GI50 (M14): > 100 µM (inactive)
- GI50 (MCF7): > 100 µM (inactive)
- GI50 (ACHN): > 100 µM (inactive)
- GI50 (SF-295): > 10 µM (inactive)
- GI50 (IGROV-1): > 100 µM (inactive)
- GI50 (MDA-MB-231): > 100 µM (inactive)
- GI50 (MOLT-4): > 100 µM (inactive)
- GI50 (NCI-H23): > 100 µM (inactive)
- GI50 (MDA-N): > 100 µM (inactive)
- GI50 (U-251): > 100 µM (inactive)
- GI50 (HL-60): > 100 µM (inactive)
- GI50 (HCC 2998): > 100 µM (inactive)
- GI50 (CCRF-CEM): > 100 µM (inactive)
- GI50 (SNB-75): 56 µM (inactive)
- GI50 (SW-620): > 100 µM (inactive)
- GI50 (SK-MEL-2): > 100 µM (inactive)
- GI50 (UO-31): > 100 µM (inactive)
- GI50 (SR): > 100 µM (inactive)
- GI50 (OVCAR-4): > 100 µM (inactive)
- GI50 (DU-145): > 100 µM (inactive)
- GI50 (OVCAR-5): 94.6 µM (inactive)
- GI50 (TK-10): > 100 µM (inactive)
- GI50 (Hs-578T): > 100 µM (inactive)
- GI50 (SF-268): > 100 µM (inactive)
- GI50 (HOP-92): > 100 µM (inactive)
- GI50 (NCI-H522): > 100 µM (inactive)
- GI50 (HCT-15): > 100 µM
- GI50 (Malme-3M): > 100 µM (inactive)
- GI50 (OVCAR-8): > 100 µM (inactive)
- GI50 (LOX IMVI): > 100 µM (inactive)
- GI50 (UACC-257): > 100 µM (inactive)
- GI50 (T47D): > 100 µM (inactive)
- GI50 (HT-29): > 100 µM (inactive)
- GI50 (A549): > 100 µM (inactive)
- GI50 (SK-MEL-5): > 100 µM (inactive)

Compound: Cc1ccc(Nc2nc(NNC(=O)Cc3ccccc3)nc(NNC(=O)c3ccncc3)n2)cc1
- GI50 (NCI-H460): > 10 µM (inactive)
- GI50 (COLO 205): > 10 µM (inactive)
- GI50 (A498): > 10 µM (inactive)
- GI50 (K562): > 10 µM (inactive)
- GI50 (SK-MEL-28): > 10 µM (inactive)
- GI50 (KM12): > 10 µM (inactive)
- GI50 (SN12C): > 10 µM (inactive)
- GI50 (BT-549): > 10 µM (inactive)
- GI50 (UACC-62): 9.82 µM (inactive)
- GI50 (NCI/ADR-RES): > 10 µM (inactive)
- GI50 (RPMI-8226): > 10 µM (inactive)
- GI50 (CAKI-1): > 10 µM (inactive)
- GI50 (EKVX): > 10 µM (inactive)
- GI50 (786-0): > 10 µM (inactive)
- GI50 (M14): > 10 µM (inactive)
- GI50 (MCF7): > 10 µM (inactive)
- GI50 (IGROV-1): > 10 µM (inactive)
- GI50 (MDA-MB-231): > 10 µM (inactive)
- GI50 (MOLT-4): > 10 µM (inactive)
- GI50 (NCI-H23): > 10 µM (inactive)
- GI50 (MDA-N): > 10 µM (inactive)
- GI50 (U-251): > 10 µM (inactive)
- GI50 (HL-60): > 10 µM (inactive)
- GI50 (HCC 2998): > 10 µM (inactive)
- GI50 (CCRF-CEM): > 10 µM (inactive)
- GI50 (SNB-75): > 10 µM (inactive)
- GI50 (SW-620): > 10 µM (inactive)
- GI50 (UO-31): 8.49 µM (inactive)
- GI50 (SR): > 10 µM (inactive)
- GI50 (OVCAR-4): > 10 µM (inactive)
- GI50 (DU-145): > 10 µM (inactive)
- GI50 (TK-10): > 10 µM (inactive)
- GI50 (Hs-578T): > 10 µM (inactive)
- GI50 (SF-268): > 10 µM (inactive)
- GI50 (HOP-92): > 10 µM (inactive)
- GI50 (HOP-62): > 10 µM (inactive)
- GI50 (SF-539): > 10 µM (inactive)
- GI50 (HCT-15): > 10 µM
- GI50 (Malme-3M): > 10 µM (inactive)
- GI50 (OVCAR-8): > 10 µM (inactive)
- GI50 (LOX IMVI): > 10 µM (inactive)
- GI50 (UACC-257): > 10 µM (inactive)
- GI50 (T47D): > 10 µM (inactive)
- GI50 (SK-OV-3): > 10 µM (inactive)
- GI50 (HT-29): > 10 µM (inactive)
- GI50 (A549): > 10 µM (inactive)
- GI50 (SK-MEL-5): > 10 µM (inactive)
